# In patent US20070037149A1, “Human calcium transporter 1 gene, screening method of calcium absorption regulating factor, and calcium absorption regulating factor” (priority 2003, published 2007):
# Legend:
# [1] = molecular target: T1, human CaT1 (Homo sapiens, UniProt Q9H1D0, I526V); test: 45Ca2+ uptake by human CaT1 constant expression cells (CHO cells transfected with pMEHis-CaT1); type: cell-based; conditions: preincubated 4 hours; for amount of 45Ca2+ incorporated into the cells versus control: 3.0 mM, ANOVA, FIG. 28
# T1 construct: expressed in transfected cells
# T1 sequence (Q9H1D0 45-765 I526V): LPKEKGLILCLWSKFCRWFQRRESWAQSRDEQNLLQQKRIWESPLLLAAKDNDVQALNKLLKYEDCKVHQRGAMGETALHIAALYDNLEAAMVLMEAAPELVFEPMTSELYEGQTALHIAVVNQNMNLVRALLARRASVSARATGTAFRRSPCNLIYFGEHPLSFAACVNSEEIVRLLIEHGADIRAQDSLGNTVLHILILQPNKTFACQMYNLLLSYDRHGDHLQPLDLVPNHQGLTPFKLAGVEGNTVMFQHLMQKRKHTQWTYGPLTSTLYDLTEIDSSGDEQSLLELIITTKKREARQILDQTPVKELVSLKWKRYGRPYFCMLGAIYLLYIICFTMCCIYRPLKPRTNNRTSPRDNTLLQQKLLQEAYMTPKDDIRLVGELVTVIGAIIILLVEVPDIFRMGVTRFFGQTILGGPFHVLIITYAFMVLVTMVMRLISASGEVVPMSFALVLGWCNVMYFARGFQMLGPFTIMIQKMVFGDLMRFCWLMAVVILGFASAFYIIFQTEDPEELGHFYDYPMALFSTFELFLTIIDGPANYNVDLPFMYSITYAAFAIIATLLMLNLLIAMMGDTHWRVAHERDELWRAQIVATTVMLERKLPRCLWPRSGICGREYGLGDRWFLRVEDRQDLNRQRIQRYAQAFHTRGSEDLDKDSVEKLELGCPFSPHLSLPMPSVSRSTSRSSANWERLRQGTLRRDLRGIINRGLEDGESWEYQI
# [2] = molecular target: T1, human CaT1; test: as above; type: cell-based; conditions: for amount of 45Ca2+ incorporated, influence of metal ions: versus control, FIG. 14
# Procedure: That is, 1×10^5 cells/well of human CaT1 constant expression cells were cultured on a 24-well plate using a medium obtained by adding 10% FCS (fetal calf serum) was added to the above-mentioned DMEM/F12 medium at 37° C. for 5 days in a CO2 environment. After the medium was removed and the cells were washed with PBS buffer and HBSS buffer, to each well added was HBSS buffer containing 5.28 μM of ^45 Ca^2+, which was removed after a predetermined time (usually for 10 minutes excepting the case in which cultivation time is varied (time course is to be obtained)), the cells were solubilized with 1% triton (triton X-100), and then the cells were recovered. The amount of ^45Ca^2+ incorporated into the cells was measured using a liquid scintillation counter. As a control, CHO cells transfected with no human CaT1 gene were also subjected to the same operations to measure the amount of ^45Ca^2+ incorporated in the cells.
# On the other hand, the effects of the metallic ion were examined by the same culture conditions and procedures as those in (4) except that 100 μM each of chloride salts La^3+, Gd^3+, Cd^2+, Co^2+, Fe^2+, Mn^2+, and Mg^2+ (10 mM for Mg2+ only) and 100 μM of choline chloride (Cho-Cl) were added to a HBSS buffer containing 5.28 μM of ^45Ca^2+.
# In other words, in regards to a cultured human CaT1 constant expression cells evaluated by the same culture conditions and procedures as those in (4), a medium was displaced by a DMEM (—Ca) medium (Dulbecco's Modified Eagle Medium (cont.) Base Catalog No. 21068, manufactured by GIBCO™ Invitrogen Corporation: KCl 400.00 mg/l, NaCl 6400.00 mg/l, NaHCO3 3700.00 mg/l, NaH2PO4.H2O 125.00 mg/l, D-glucose 4500.00 mg/l, L-isoleucine 105.00 mg/l, L-leucine 105.00 mg/l, L-lysine.HCl 146.00 mg/l, L-tyrosin/2Na.2H2O 104.00mg/l) containing, as the food factor, 7% lactose (special grade reagents) 1% casein enzymatic degradation products, 1% guar gum hydrolysate, and soybean enzymatic degradation products (manufactured by Fuji oil Co., Ltd.), respectively, and the amount of ^45Ca^2+ incorporated into the cells was measured after preincubation for additional 4 hours.
# The enzyme-treated sample obtained in (1) was dissolved in DMEM (—Ca) (the same as that used in Example 1(6)) so as to make a concentration of 1.0 (w/v)%. This was added to human CaT1 constant expression cells cultivated by the same culture conditions and the same procedures as those in Example 1(4) and CHO cells transfected with no human CaT1 gene, and these cells were preincubated for 4 hours. A medium contained 2.5% dialyzed (Spectra/POR MWCO:100) FCS and 2% L-glutamine solution.
# Immediately after completion of the pretreatement, the amount of ^45Ca^2+ incorporated into the cells was measured by the same technique as used in Example 1(4). On the other hand, the same procedure was followed without addition of the enzyme-treated samples as a control.
# [3] = molecular target: human calcium transporter 1 (human CaT1) (human) (UniProt Q9H1D0); test: cell-based or functional assay
# [4] = 100 μM chloride salt in HBSS buffer with 5.28 μM 45Ca2+
molecule,measurement,setting,value
C[C@H](N)C(=O)O [Ala],amount of 45Ca2+ incorporated into the cells versus control,[1],no significant increase
[Cl][Cd][Cl] [Cd^2+],"amount of 45Ca2+ incorporated, influence of metal ions",[2]; [4],inhibit
OC[C@H]1O[C@@H](O[C@H]2[C@H](O)[C@@H](O)C(O)O[C@@H]2CO)[C@H](O)[C@@H](O)[C@H]1O (some centres unmarked) [lactose],"amount of 45Ca2+ incorporated into the cells, influence of food factor","[2]; 7% in DMEM (-Ca) medium, preincubation 4 hours, FIG. 15",increased
Ile-Pro-Ala [peak 1],"amount of 45Ca2+ incorporated into the cells, HPLC peaks","[1]; 0.5 mg/ml, ANOVA p<0.05 versus other peaks and control, FIG. 25",increased significantly
enzymatic degradation product of cheese whey (CWP-D),Km of Ca2+ uptake with CWP-D pretreatment (+CWP-D),[3],19 µM
same,Vmax of Ca2+ uptake with CWP-D pretreatment (+CWP-D) (pmol/mg/10 min),[3],1.06
same,"amount of 45Ca2+ incorporated into human CaT1 constant expression cells (fold of control, 1.0 (w/v)% CWP-D, 4 h pretreatment)",[3],8 times
CC[C@H](C)[C@H](N)C(=O)O [Ile],amount of 45Ca2+ incorporated into the cells versus control,[1],no significant increase
[Fe+2] [Fe^2+],"amount of 45Ca2+ incorporated, influence of metal ions",[2]; [4],no significant difference
[La+3] [La^3+],"amount of 45Ca2+ incorporated, influence of metal ions",[2]; [4],inhibit
Ile-Pro-Ala (IPA) [synthetic peptide IPA],"amounts of 45Ca2+ incorporated into the cells, influence of concentration","[1]; 0, 0.25, 0.5, 1.0 mg/ml, FIG. 27",significantly increased depending on the concentration
O=C(O)[C@@H]1CCCN1 [Pro],amount of 45Ca2+ incorporated into the cells versus control,[1],no significant increase
[Mg+2] [Mg^2+],"amount of 45Ca2+ incorporated, influence of metal ions",[2]; 10 mM (Mg2+ only) in HBSS buffer with 5.28 μM 45Ca2+,no significant difference
[Mn+2] [Mn^2+],"amount of 45Ca2+ incorporated, influence of metal ions",[2]; [4],no significant difference
[Co+2] [Co^2+],"amount of 45Ca2+ incorporated, influence of metal ions",[2]; [4],inhibit
[Gd+3] [Gd^3+],"amount of 45Ca2+ incorporated, influence of metal ions",[2]; [4],inhibit
Ile-Pro-Ile [IPI],amount of 45Ca2+ incorporated into the cells versus control,[1],no significant increase
